# Where “and” joins values, the source holds several entries; their conditions need not be identical. Equal values may be shown once.
# Assays:
# [1] = Stability test at 25° C. and 60% RH, amount by HPLC; type: physicochemical; settings: for amount of compound remaining, single runs: first/second/third time
# Protocol: After a constant period of time, the amount of each compound was measured by HPLC to evaluate the stability. The amount of the compound was calculated in accordance with: (The amount of compound after a constant period of time)/(the amount of compound at the time when the test was initiated)×100(%).
# [2] = Electron spin resonance (ESR) measurement test, amount of tyrosine radical; type: biochemical; settings: 5 μM, 50 μM and 500 μM added to standard solution; activity order R<DR<DHR
# Protocol: (§1) Resveratrol (R), as well as dimethyl resveratrol (DR) and dimethylhydroxy resveratrol (DHR), which are compounds of the present invention, were added to radicals serving as standard substances, and the amounts of remaining tyrosine radicals and hydroxyl radicals were assessed. Specifically, a standard solution comprising a 50 mM NaPi buffer (pH 7.4), 10 mM DMPO, 1.6 mM myoglobin, and 1 mM H2O2 was prepared using myoglobin as a tyrosine radical. Further, a standard solution comprising a 50 mM NaPi buffer (pH 7.4), 10 mM DMPO, 0.1 mM Fe^2+-EDTA, and 1 mM H2O2 was prepared using Fe^2+-EDTA as a hydroxyl radical. […] The ESR was set as follows: microwave power: 10 mW; adjusted frequency: 100 KHz; adjusted magnetic field: 0.1 G; receiver gain: 1000; and time constant: 0.3 s. FIGS. 1(A) and 1(B) show the results.
# [3] = Electron spin resonance (ESR) measurement test, amount of hydroxyl radical; type: biochemical; settings: 5 μM, 50 μM and 500 μM added to standard solution; activity order R<DR<DHR
# Protocol: as §1
# crystalline lens = assay: Smoking rat presbyopia model (Example 3): crystalline lens hardness; type: in vivo, Sprague-Dawley rats; settings: smoking rats, 300 μM PBS solution, 5 μL instilled 4 times per day for 11 days; smoking group 1.04±0.05, non-smoking 0.75±0.04
# Protocol: Six-week-old male Sprague-Dawley rats were subjected to smoking treatment to develop dry-eye, presbyopia models. Specifically, a treatment in which mainstream smoke (300 mL) was added to a rat-containing chamber 6 times at 30-minute intervals was performed for 12 days to induce keratoconjunctival epithelial damage. […] Each group consisted of 4 animals (8 eyes). After the 11-day smoking treatment, the body weight, tear volume, fluorescent staining score, and crystalline lens hardness were measured. • 0: not stained (no punctate fluorescence) • 1: weak punctate fluorescence • 2: relatively intense punctate fluorescence • 3: strong punctate fluorescence The crystalline lens hardness was measured by combining an electronic weighing scale and height gauge. A crystalline lens whose minor axis length had been previously measured was placed on an electronic weighing scale, and the weight was set to 0. The handle of a height gauge was used above the crystalline lens to allow the end portion to be in contact with the crystalline lens. Further using the handle, the end portion was lowered about 5 to 10% of the minor axis length to apply a pressure on the crystalline lens. The change in the weight at this time was measured with the electronic weighing scale, and the weight was divided by the moving distance measured with the height gauge. The resulting value was considered to be hardness. A larger value represents more hardness. For statistical analysis of the body weight, tear volume, and crystalline lens hardness, a significant difference test was performed using the Dunnett method in terms of each group with respect to the smoking group.
# [4] = test system: keratoconjunctival epithelial damage caused by dry eye; assay: Therapeutic efficacy test using smoking rat (Example 3): tear volume and fluorescein staining score; type: in vivo, Sprague-Dawley rats; settings: smoking rats, 300 μM PBS solution, 5 μL instilled 4 times per day for 11 days; for tear volume (cotton thread test, length of wet portion): smoking group 10.0±5.0, non-smoking 14.0±9.1; for average fluorescein score (fluorescent staining score): smoking group 3.7±1.0, non-smoking 0.8±1.0
# Protocol: In this experiment, both eyes of each animal were used. The same drug solution was administered to both eyes of each animal, and a comparison was made among groups.
# Six-week-old male Sprague-Dawley rats were subjected to smoking treatment to develop dry-eye, presbyopia models.
# Specifically, a treatment in which mainstream smoke (300 mL) was added to a rat-containing chamber 6 times at 30-minute intervals was performed for 12 days to induce keratoconjunctival epithelial damage. […] Each group consisted of 4 animals (8 eyes).
# After the 11-day smoking treatment, the body weight, tear volume, fluorescent staining score, and crystalline lens hardness were measured.
# To determine the tear volume, tears accumulated in the cornea of rat were measured in accordance with the cotton thread test. Specifically, after the rats were anesthetized with ocular instillation of oxybuprocaine hydrochloride, a cotton thread was inserted between the palpebra and eyeball for 60 seconds, and tears were collected. The tear volume was assessed by measuring the length (mm) of the wet portion in the cotton thread.
# After the completion of ocular instillation, a damaged portion in corneal epithelium was stained with a fluorescent dye (fluorescein). Then, the degree of corneal epithelial damage was assessed based on the following criteria by scoring each section of the entire cornea, which was divided into a total of 9 sections, i.e., upper, middle, and lower, and left, center, and right sections, and calculating the total value. Thereafter, the score values were compared among the groups for analysis. For statistical analysis, a significant difference test was performed by using the Dunnett method in terms of each group with respect to the smoking group. For unbiased evaluation, the content of the drug solution administered to each group was blinded from the initiation of ocular instillation to the scoring of the corneal epithelial damage, and collated after scoring.
# Evaluation Criteria for Scoring of Fluorescein Staining of Corneal Epithelium
# • 0: not stained (no punctate fluorescence) • 1: weak punctate fluorescence • 2: relatively intense punctate fluorescence • 3: strong punctate fluorescence The crystalline lens hardness was measured by combining an electronic weighing scale and height gauge. A crystalline lens whose minor axis length had been previously measured was placed on an electronic weighing scale, and the weight was set to 0. The handle of a height gauge was used above the crystalline lens to allow the end portion to be in contact with the crystalline lens. Further using the handle, the end portion was lowered about 5 to 10% of the minor axis length to apply a pressure on the crystalline lens. The change in the weight at this time was measured with the electronic weighing scale, and the weight was divided by the moving distance measured with the height gauge. The resulting value was considered to be hardness. A larger value represents more hardness.
# For statistical analysis of the body weight, tear volume, and crystalline lens hardness, a significant difference test was performed using the Dunnett method in terms of each group with respect to the smoking group.
# [5] = test system: keratoconjunctival epithelial damage caused by dry eye; assay: Therapeutic efficacy test using smoking rat (Example 5), comparison with Diquas; type: in vivo, Sprague-Dawley rats; settings: for body weight: smoking rats after 11-day treatment, instilled 5 μL 4 times per day, smoking group 280.0±5.8; for average fluorescein score (fluorescent staining score) / tear volume (cotton thread test): smoking rats, DR 300 μM in PBS or Diquas 3%, 5 μL 4 times per day for 11 days; for average fluorescein score (fluorescent staining score): smoking group 4.6±1.2, non-smoking 1.2±1.2; for tear volume (cotton thread test): smoking group 11.3±9.0, non-smoking 17.6±9.1
# Protocol: In this experiment, both eyes of each animal were used. The same drug solution was administered to both eyes of each animal, and a comparison was made among groups. Six-week-old male Sprague-Dawley rats were subjected to smoking treatment to develop dry-eye models. Specifically, a treatment in which mainstream smoke (300 mL) was added to a rat-containing chamber 6 times at 30-minute intervals was performed for 12 days to induce a keratoconjunctival epithelial damage. […] The tear volume and fluorescent staining score were measured in accordance with the method described in Example 3. For statistical analysis, a significant difference test was performed using the Dunnett method in terms of each group with respect to the smoking group.
# [6] = Measurement of radical scavenging activity (galvinoxyl radical, stopped flow method); type: biochemical; settings: acetonitrile, deaerated with argon, absorbance at 428 nm
# Protocol: Unlike active oxygen, a galvinoxyl radical (GO•), which is a relatively stable organic oxygen radical having a characteristic peak absorption at 428 nm, may be used to perform kinetic analysis in terms of the radical scavenging ability of antioxidants using ultraviolet visible spectroscopy.
# In this experiment, the radical scavenging rate was measured by a stopped flow method. The following reagent was used: • Acetonitrile (Nacalai Tesque, Inc., 00433-95); and • Galvinoxyl Radical (Aldrich, G30-7).
# A solution of GO• in acetonitrile (about 2.4×10^−6 M) was bubbled with argon for 7 minutes to remove molecular oxygen. […] Subsequently, the acetonitrile solutions of GO• and the compounds were simultaneously mixed to measure changes in the peak absorption of GO• (at 428 nm) over time by a stopped flow method.
# Under conditions in which the concentration of each antioxidant is 10 times or more than that of GO• ([Antioxidant agent]>10[GO•]), the reduction in the absorbance at 428 nm derived from GO• follows the pseudo-first-order kinetics (equation (1)) with respect to the concentration of each antioxidant agent (antioxidant): −d[GO•]/dt=kobs[GO•] […] Integration of both sides of equation (1) leads to equation (2): ln([GO•]/[GO•]0)=−kobst (2), wherein [GO•]o is a concentration of GO• when t=0. […]
# corneal epithelium = assay: Safety test: hematoxylin-eosin staining of rat cornea; type: in vivo; settings: 300 μM PBS solution, treated for one week
# Source text: FIGS. 8(A) and 8(B) show photographs of each tissue section.
structure (smiles),measurement,setting,value
"Oc1ccc(/C=C/c2cc(O)cc(O)c2)cc1 [Resveratrol, trans-1,2-(3,4′,5-trihydroxydiphenyl)ethylene, reference compound]","amount of compound remaining, average","[1]; 10 mM solution (10% DMSO in water), 1 week, 25° C. 60% RH, average of three runs",82%
same,"amount of compound remaining, single runs","[1]; 10 mM solution (10% DMSO in water), 1 week, 25° C. 60% RH",80% and 82% and 85%
same,"amount of compound remaining, average","[1]; 10 mM solution (10% DMSO in water), 2 weeks, 25° C. 60% RH, average of three runs",64%
same,"amount of compound remaining, single runs","[1]; 10 mM solution (10% DMSO in water), 2 weeks, 25° C. 60% RH",59% and 65% and 68%
same,"amount of compound remaining, average","[1]; 10 mM solution (10% DMSO in water), 1 day, 25° C. 60% RH, average of three runs",98%
same,"amount of compound remaining, single runs","[1]; 10 mM solution (10% DMSO in water), 1 day, 25° C. 60% RH",98% and 99% and 96%
same,"amount of compound remaining, average","[1]; 10 mM solution (10% DMSO in water), 2 days, 25° C. 60% RH, average of three runs",95%
same,"amount of compound remaining, single runs","[1]; 10 mM solution (10% DMSO in water), 2 days, 25° C. 60% RH",95% and 96%
same,"amount of compound remaining, average","[1]; 10 mM solution (10% DMSO in water), 3 days, 25° C. 60% RH, average of three runs",91%
same,"amount of compound remaining, single runs","[1]; 10 mM solution (10% DMSO in water), 3 days, 25° C. 60% RH",90% and 93%
same,"amount of compound remaining, average","[1]; solid, 1 week, 25° C. 60% RH, average of three runs",99%
same,"amount of compound remaining, single runs","[1]; solid, 1 week, 25° C. 60% RH",100% and 101% and 97%
same,"amount of compound remaining, average","[1]; solid, 2 weeks, 25° C. 60% RH, average of three runs",95%
same,"amount of compound remaining, single runs","[1]; solid, 2 weeks, 25° C. 60% RH",96% and 94%
same,"amount of compound remaining, average","[1]; solid, 3 weeks, 25° C. 60% RH, average of three runs",91%
same,"amount of compound remaining, single runs","[1]; solid, 3 weeks, 25° C. 60% RH",91% and 90% and 92%
same,"amount of compound remaining, average","[1]; solid, 4 weeks, 25° C. 60% RH, average of three runs",86%
same,"amount of compound remaining, single runs","[1]; solid, 4 weeks, 25° C. 60% RH",88% and 86% and 85%
same,"radical generation (amount of tyrosine radical, ESR)",[2],reduced radical generation in a concentration-dependent manner
same,"radical generation (amount of hydroxyl radical, ESR)",[3],reduced radical generation in a concentration-dependent manner
same,crystalline lens elasticity (hardness; larger value = harder),crystalline lens,0.87±0.06
same,"tear volume (cotton thread test, length of wet portion)",[4],6.9±4.3 mm
"C/C(=C(/C)c1cc(O)cc(O)c1)c1ccc(O)cc1 [DR, (E)-5-[3-(4-hydroxyphenyl)but-2-en-2-yl]benzene-1,3-diol]",body weight,[5],271.0 ± 7.5 g
same,average fluorescein score (fluorescent staining score),[5],2.1±0.8
same,tear volume (cotton thread test),[5],19.3±11.2 mm
same,"amount of compound remaining, average",[1]; 168 h,99%
same,"amount of compound remaining, average",[1]; 336 h,98%
same,"amount of compound remaining, average",[1]; 504 h,96%
same,"amount of compound remaining, average",[1]; 672 h,94%
same,"amount of compound remaining, average","[1]; buffer, 24 h, 10 mM",99%
same,"amount of compound remaining, average","[1]; buffer, 48 h, 10 mM",96%
same,"amount of compound remaining, average","[1]; buffer, 72 h, 10 mM",94%
same,"amount of compound remaining, average","[1]; buffer, 168 h, 10 mM",88%
same,"amount of compound remaining, average","[1]; buffer, 336 h, 10 mM",76%
same,"radical generation (amount of tyrosine radical, ESR)",[2],reduced radical generation in a concentration-dependent manner
same,"radical generation (amount of hydroxyl radical, ESR)",[3],reduced radical generation in a concentration-dependent manner
same,radical scavenging activity (constant kHT of rate of hydrogen transfer to GO•),[6],0.96 M⁻¹ s⁻¹
same,crystalline lens elasticity (hardness; larger value = harder),crystalline lens,0.86±0.06
same,average fluorescein score (fluorescent staining score),[4],2.3±0.5
same,"tear volume (cotton thread test, length of wet portion)",[4],8.3±4.9 mm
same,morphological effects on the corneal epithelium (HE staining),corneal epithelium,did not show morphological effects on the corneal epithelium
"C/C(=C(/C)c1ccc(O)c(O)c1)c1cc(O)cc(O)c1 [DHR, (E)-4-[3-(3,5-dihydroxyphenyl)but-2-en-2-yl]benzene-1,2-diol]","radical generation (amount of tyrosine radical, ESR)",[2],reduced radical generation in a concentration-dependent manner
same,"radical generation (amount of hydroxyl radical, ESR)",[3],reduced radical generation in a concentration-dependent manner
same,radical scavenging activity (constant kHT of rate of hydrogen transfer to GO•),[6],2300 M⁻¹ s⁻¹
same,crystalline lens elasticity (hardness; larger value = harder),crystalline lens,0.75±0.05
same,average fluorescein score (fluorescent staining score),[4],1.5±0.5
same,"tear volume (cotton thread test, length of wet portion)",[4],13.8±11.1 mm
"O=c1ccn([C@@H]2O[C@H](COP(=O)(O)OP(=O)(O)OP(=O)(O)OP(=O)(O)OC[C@H]3O[C@@H](n4ccc(=O)[nH]c4=O)[C@H](O)[C@@H]3O)[C@@H](O)[C@H]2O)c(=O)[nH]1 [diquafosol sodium, reference compound]",body weight,[5],273.8 ± 4.3 g
same,average fluorescein score (fluorescent staining score),[5],4.3±1.6
same,tear volume (cotton thread test),[5],11.0±6.5 mm
